Source: EP4796536A1, “CRYSTAL FORMS OF COMPOUND HAVING FUSED FIVE- AND SIX-MEMBERED RINGS, PREPARATION METHOD THEREFOR, AND USE THEREOF” (Hangzhou Polymed Biopharmaceuticals, Inc., priority 2023, dated 2025)
Converted amounts (≈) assume the structure as drawn.

Assays:
[1] = Solubility of crystal forms in buffers, biorelevant media and water (HPLC, XRPD of residual solid); assay type: physicochemical; conditions: for pH (24 h): 5 mg/mL suspension stirred at 37°C, pH of the solution at 24 h; for Solubility at 37°C (mg/mL) 2 h: 120 min
Procedure: The solubility of the two crystal forms at 2 hours and 24 hours and the pH of the solution at 24 hours were tested. The solid was filtered, and the resulting solid was tested for XRPD.

[2] = Physicochemical stability of crystal forms (HPLC purity, XRPD)
[3] = Mechanical stability: dry grinding, wet grinding, tableting (XRPD); assay type: physicochemical
Procedure: Dry grinding: approximately 10 mg of the starting sample was ground for 3 minutes in a mortar, and then subjected to XRPD testing.
Wet grinding: approximately 10 mg of the starting sample was ground with 1 to 2 drops of solvent for 3 minutes in a mortar, and then subjected to XRPD testing.
Tableting experiment: approximately 10 mg of the starting sample was compressed at 20 MPa for 3 minutes, and then subjected to XRPD testing.

[4] = Hygroscopicity by dynamic vapor sorption (DVS); assay type: physicochemical
Procedure: Samples are analyzed for hygroscopicity using Intrinsic DVS ([…], UK). Approximately 10 to 30 mg of sample is used for testing. The testing chamber is controlled at a temperature of 25 ± 1°C with the specific testing parameters shown below: […]

[5] = Dry grinding, 3 minutes in a mortar, no solvent
[6] = Tableting, 20 MPa for 3 minutes, solvent EA
[7] = Wet grinding, solvent EtOH, 3 minutes in a mortar
[8] = Wet grinding, solvent Water, 3 minutes in a mortar

With `COc1cc2nn(C3CC4(CCN(C(=O)C5CCN(c6ccc7c(c6)C(=O)N(C6CCC(=O)NC6=O)C7=O)CC5)CC4)C3)cc2cc1NC(=O)c1cccc(C(F)(F)F)n1` (single isomer, unassigned) [crystal form A] as the compound, how does the “pH (24 h)” value ([1]; FaSSIF) read?
The value was 6.570.

What about the “Solubility at 37°C (mg/mL) 2 h” value ([1]; FaSSIF, 37°C, 2 h) of the same compound?
The value was 0.00461 mg/mL (≈ 5.58 µM).

And the “Solubility at 37°C (mg/mL) 24 h” value ([1]; FaSSIF, 37°C, 1440 min)?
Its value is 0.00285 mg/mL (≈ 3.45 µM).

And the solubility ([1]; FeSSIF, stirring at 37°C for 24 hours, 1440 min)?
The solubility was “approximately 0.004 mg/mL”.

And the “pH (24 h)” value ([1]; FeSSIF)?
Its value is 5.032.

What about the “Solubility at 37°C (mg/mL) 2 h” value ([1]; FeSSIF, 37°C, 2 h) of the same compound?
The value was 0.00391 mg/mL (≈ 4.73 µM).

And the “Solubility at 37°C (mg/mL) 24 h” value ([1]; FeSSIF, 37°C, 1440 min)?
The value was 0.00414 mg/mL (≈ 5.01 µM).

And the “pH (24 h)” value ([1]; SGF)?
Its value is 1.225.

What about the “pH (24 h)” value ([1]; Water) of the same compound?
Its value is 7.311.

What about the “Solubility at 37°C (mg/mL) 24 h” value ([1]; Water, 37°C, 1440 min) of the same compound?
The value was 0.00075 mg/mL (≈ 0.907 µM).

What about the Crystal form ([1]; XRPD of residual solid after stirring in FaSSIF at 37°C for 24 hours) of the same compound?
Its Crystal form is “Crystal form A”.

What about the Crystal form ([1]; XRPD of residual solid after stirring in FeSSIF at 37°C for 24 hours) of the same compound?
The Crystal form was “Crystal form A”.

And the Crystal form ([1]; XRPD of residual solid after stirring in SGF at 37°C for 24 hours)?
Its Crystal form is “Crystal form A”.

And the Crystal form ([1]; XRPD of residual solid after stirring in Water at 37°C for 24 hours)?
Its Crystal form is “Crystal form A”.

What about the Crystal form ([1]; XRPD of residual solid after stirring in pH 1.2 buffer at 37°C for 24 hours) of the same compound?
The Crystal form was “Crystal form A”.

What about the Crystal form ([1]; XRPD of residual solid after stirring in pH 3.0 buffer at 37°C for 24 hours) of the same compound?
The Crystal form was “Crystal form A”.

And the Crystal form ([1]; XRPD of residual solid after stirring in pH 4.5 buffer at 37°C for 24 hours)?
Its Crystal form is “Crystal form A”.

What about the Crystal form ([1]; XRPD of residual solid after stirring in pH 6.8 buffer at 37°C for 24 hours) of the same compound?
Its Crystal form is “Crystal form A”.

And the Crystal form ([1]; XRPD of residual solid after stirring in pH 7.4 buffer at 37°C for 24 hours)?
The Crystal form was “Crystal form A”.

What about the solubility at 24 h ([1]; fassif, stirring at 37°C for 24 hours, read-out: solubility) of the same compound?
Its solubility at 24 h is ~4 µg/mL (≈ 4.84 µM).

And the “pH (24 h)” value ([1]; pH 1.2 buffer)?
Its value is 1.214.

What about the “pH (24 h)” value ([1]; pH 3.0 buffer) of the same compound?
Its value is 3.078.

What about the “pH (24 h)” value ([1]; pH 4.5 buffer) of the same compound?
Its value is 4.584.

What about the “Solubility at 37°C (mg/mL) 2 h” value ([1]; pH 4.5 buffer, 37°C, 2 h) of the same compound?
The value was 0.00026 mg/mL (≈ 0.314 µM).

And the “pH (24 h)” value ([1]; pH 6.8 buffer)?
Its value is 6.833.

And the “pH (24 h)” value ([1]; pH 7.4 buffer)?
The value was 7.428.

What about the solubility at 2 h ([1]; water, 37°C, 2 h, read-out: Solubility at 37°C (mg/mL) 2 h) of the same compound?
Its solubility at 2 h is 0.00052 mg/mL (≈ 0.629 µM).

What about the “Purity (%)” value ([2]; 25°C/60% RH, open, 1 week) of the same compound?
The value was 96.38%.

What about the XRPD ([2]; 25°C/60% RH, open, 1 week) of the same compound?
Its XRPD is “Unchanged”.

What about the “Purity (%)” value ([2]; 40°C/75% RH, open, 1 week) of the same compound?
Its value is 96.39%.

And the XRPD ([2]; 40°C/75% RH, open, 1 week)?
Its XRPD is “Unchanged”.

And the “Purity (%)” value ([2]; 60°C, closed, 1 week)?
Its value is 96.40%.

What about the XRPD ([2]; 60°C, closed, 1 week) of the same compound?
The XRPD was “Unchanged”.

What about the “Purity (%)” value ([2]; Initial) of the same compound?
Its value is 96.41%.

What about the XRPD ([2]; Initial) of the same compound?
Its XRPD is “Crystal form A”.

What about the “Purity (%)” value ([2]; Light, closed, 10 days) of the same compound?
The value was 96.41%.

And the XRPD ([2]; Light, closed, 10 days)?
Its XRPD is “Unchanged”.

And the “Purity (%)” value ([2]; Light, control, 10 days)?
The value was 96.42%.

And the XRPD ([2]; Light, control, 10 days)?
The XRPD was “Unchanged”.

What about the “change in the crystal form after stability testing” value ([2]; all stability conditions) of the same compound?
Its value is “no change in the crystal form”.

What about the degradation ([2]; all stability conditions (60°C, 25°C/60% RH, 40°C/75% RH 1 week; light 10 days)) of the same compound?
Its degradation is “no significant degradation”.

And the Solid color [3, 5]?
The Solid color was “Slightly deepened, yellow”.

And the XRPD results [3, 5]?
The XRPD results was “Crystal form A (low degree of crystallinity)”.

What about the Solid color [3, 6] of the same compound?
Its Solid color is “Slightly deepened, yellow”.

What about the XRPD results [3, 6] of the same compound?
Its XRPD results is “Crystal form A”.

And the Solid color [3, 7]?
Its Solid color is “Slightly deepened, yellow”.

And the XRPD results [3, 7]?
The XRPD results was “Crystal form A”.

What about the Solid color [3, 8] of the same compound?
The Solid color was “Slightly deepened, yellow”.

What about the XRPD results [3, 8] of the same compound?
Its XRPD results is “Crystal form A”.

What about the “degree of crystallinity of the solid” value ([3]; after dry grinding) of the same compound?
Its value is “reduction in the degree of crystallinity”.

What about the “crystal form of the solid (XRPD)” value ([3]; after dry grinding, wet grinding, and tableting) of the same compound?
The value was “no change in the crystal form”.

What about the Solid color ([3]; after grinding and tableting experiments, versus starting sample) of the same compound?
Its Solid color is “slightly darker”.

What about the “degree of crystallinity of the solid” value ([3]; after wet grinding and tableting) of the same compound?
Its value is “almost no change in the degree of crystallinity”.

And the hygroscopic weight gain ([4]; 80% RH, 25°C)?
Its hygroscopic weight gain is 2.213%.

And the hygroscopicity evaluation ([4]; DVS, based on weight gain at 80% RH)?
The hygroscopicity evaluation was “hygroscopic”.

What about the “crystal form after DVS testing” value ([4]; after DVS testing) of the same compound?
Its value is “no change in the crystal form”.
